# In ChEMBL document CHEMBL5518180, “Design, synthesis, and biological evaluation of harmine derivatives as topoisomerase I inhibitors for cancer treatment” (Eur J Med Chem, 2024):
# The source made the active and inactive calls. The rule behind the calls is not given here.
# Tests used:
# A549 = assay: Antiproliferative activity against human A549 cells assessed as inhibition of cell growth incubated for 48 hrs by MTT assay; assay type: functional, cell-based; details: A549, 48 h
# [1] = Cytotoxicity against human L02 cells assessed as inhibition of cell growth incubated for 48 hrs by MTT assay; assay type: toxicity, cell-based
# MCF7 [2] = assay: Antiproliferative activity against human MCF7 cells assessed as inhibition of cell growth incubated for 48 hrs by MTT assay; assay type: functional, cell-based; details: MCF7, 48 h
# HepG2 = assay: Antiproliferative activity against human HepG2 cells assessed as inhibition of cell growth incubated for 48 hrs by MTT assay; assay type: functional, cell-based; details: HepG2, 48 h
# MDA-MB-231 = assay: Antiproliferative activity against human MDA-MB-231 cells assessed as inhibition of cell growth incubated for 48 hrs by MTT assay; assay type: functional, cell-based; details: MDA-MB-231, 48 h
# PC-3 = assay: Antiproliferative activity against human PC-3 cells assessed as inhibition of cell growth incubated for 48 hrs by MTT assay; assay type: functional, cell-based; details: PC-3, 48 h
# HT-29 = assay: Antiproliferative activity against human HT-29 cells assessed as inhibition of cell growth incubated for 48 hrs by MTT assay; assay type: functional, cell-based; details: HT-29, 48 h
# MCF7 [3] = assay: Induction of DNA damage in human MCF7 cells at 10 uM incubated for 24 hrs by Comet assay; assay type: functional, cell-based
# MCF7 [4] = assay: Induction of DNA double-strand breaks in human MCF7 cells assessed as increase in gamma-H2AX at 10 uM incubated for 48 hrs by DAPI staining based confocal laser scanning microscopy; assay type: functional, cell-based
# MCF7 [5] = assay: Induction of apoptosis in human MCF7 cells assessed as early apoptotic cells at 25 uM incubated for 24 hrs by Annexin V-FITC/Propidium Iodide staining based flow cytometry analysis (reference value: 2.54 %); assay type: functional
# MCF7 [6] = assay: Induction of apoptosis in human MCF7 cells assessed as necrotic cells at 25 uM incubated for 24 hrs by Annexin V-FITC/Propidium Iodide staining based flow cytometry analysis (reference value: 0.082 %); assay type: functional
# MCF7 [7] = assay: Induction of apoptosis in human MCF7 cells assessed as viable cells at 25 uM incubated for 24 hrs by Annexin V-FITC/Propidium Iodide staining based flow cytometry analysis (reference value: 91.8 %); assay type: functional; details: read-out: Activity
# MCF7 [8] = assay: Induction of apoptosis in human MCF7 cells assessed as late apoptotic cells at 25 uM incubated for 24 hrs by Annexin V-FITC/Propidium Iodide staining based flow cytometry analysis (reference value: 5.58 %); assay type: functional
# 4T1 = assay: Antitumor activity against mouse 4T1 cells transplanted in BALB/c mouse assessed as tumor growth inhibition rate at 10 mg/kg, ip administered for 14 days relative to control; assay type: functional; parameters: scale not given: the % may be the effect or the level left; details: time 14 day
SMILES,IC50 (A549) [µM],IC50 at 48 h [1] [µM],IC50 (MCF7 [2]) [µM],IC50 (HepG2) [µM],IC50 (MDA-MB-231) [µM],IC50 (PC-3) [µM],IC50 (HT-29) [µM],Activity (MCF7 [3]),Activity (MCF7 [4]),Activity (MCF7 [5]) [%],Activity (MCF7 [6]) [%],viability at 25 µM (MCF7 [7]) [%],Activity (MCF7 [8]) [%],Activity (4T1) [%]
O=C(/C=C/c1cccc(I)c1)c1nccc2c1[nH]c1ccccc12,> 20,> 20,1.6,> 20,5.17,> 10,> 20,,,,,,,
CCc1ccc(/C=C/C(=O)c2nccc3c2[nH]c2ccccc23)cc1,> 20,> 20,> 20,> 20,> 20,> 10,> 20,,,,,,,
O=C(/C=C/c1cc(Cl)ccc1Cl)c1nccc2c1[nH]c1ccccc12,6.78,9.91,0.59,3.37,2.77,1.4,3.14,,,,,,,
CC[C@@]1(O)C(=O)OCc2c1cc1n(c2=O)Cc2cc3ccccc3nc2-1 [CAMPTOTHECIN],7.8,0.59,6.85,1.8,0.62,6.6,1.87,Active,Active,,,,,
O=C(/C=C/c1ccc(Br)cc1)c1nccc2c1[nH]c1ccccc12,12.2,> 20,3.54,> 20,9.21,> 10,9.73,,,,,,,
O=C(/C=C/c1cccc(Br)c1)c1nccc2c1[nH]c1ccccc12,11.8,14.3,4.99,5.89,6.44,2.69,7.24,,,,,,,
COc1ccc2[nH]c3c(C(=O)/C=C/c4cccc(Br)c4)nccc3c2c1,> 20,> 20,> 20,> 20,> 20,> 10,0.49,,,,,,,
COc1ccc2[nH]c3c(C(=O)/C=C/c4cc(F)c(F)c(F)c4)nccc3c2c1,> 20,> 20,4.23,15.9,6.52,> 10,2.72,,,,,,,
O=C(/C=C/c1ccc([N+](=O)[O-])cc1)c1nccc2c1[nH]c1ccccc12,> 20,> 20,5.87,> 20,0.62,> 10,3.96,,,,,,,
COc1ccc2[nH]c3c(C(=O)/C=C/c4ccc(Cl)c([N+](=O)[O-])c4)nccc3c2c1,5.72,> 20,> 20,7.72,2.99,> 10,> 20,,,,,,,
COc1ccc2[nH]c3c(C(=O)/C=C/c4ccc(Br)cc4)nccc3c2c1,> 20,> 20,8.45,15.7,5.67,4.18,7.74,,,,,,,
COc1ccc2[nH]c3c(C(=O)/C=C/c4ccc([N+](=O)[O-])cc4)nccc3c2c1,> 20,> 20,15.5,> 20,> 20,> 10,> 20,,,,,,,
COc1ccc2[nH]c3c(C(=O)/C=C/c4ccc(OC)c(OC)c4OC)nccc3c2c1,7.1,> 20,6.1,> 20,> 20,> 10,6.08,,,,,,,
COc1cc(/C=C/C(=O)c2nccc3c2[nH]c2ccccc23)ccc1F,3.07,> 20,2.38,5.7,3.25,1.02,10.9,,,,,,,
O=C(/C=C/c1cc(F)c(F)c(F)c1)c1nccc2c1[nH]c1ccccc12,5.73,17.8,0.88,0.96,2.05,1.19,0.89,,,,,,,
O=C(/C=C/c1ccc2c(c1)OCCO2)c1nccc2c1[nH]c1ccccc12,> 20,> 20,> 20,13.2,15.2,> 10,> 20,,,,,,,
COc1ccc2[nH]c3c(C(=O)/C=C/c4c(OC)cccc4OC)nccc3c2c1,15.3,> 20,5.71,7.13,12,> 10,13.6,,,,,,,

SMILES,IC50 (A549) [µM],IC50 at 48 h [1] [µM],IC50 (MCF7 [2]) [µM],IC50 (HepG2) [µM],IC50 (MDA-MB-231) [µM],IC50 (PC-3) [µM],IC50 (HT-29) [µM],Activity (MCF7 [3]),Activity (MCF7 [4]),Activity (MCF7 [5]) [%],Activity (MCF7 [6]) [%],viability at 25 µM (MCF7 [7]) [%],Activity (MCF7 [8]) [%],Activity (4T1) [%]
COc1ccc2[nH]c3c(C(=O)/C=C/c4ccc(Cl)c(C)c4)nccc3c2c1,7.49,> 20,4.38,2.74,6.45,> 10,1.89,,,,,,,
COc1ccc2[nH]c3c(C(=O)/C=C/c4ccc5c(c4)OCCO5)nccc3c2c1,> 20,> 20,14.5,15.6,18.1,3.79,> 20,,,,,,,
COc1ccc2c(c1)[nH]c1c(C)nccc12 [HARMINE],,9.49,13.4,19.2,13.2,15.6,12.2,,,9.74,0.055,82.7,7.48,
COc1ccc2[nH]c3c(C(=O)/C=C/C=C/c4ccccc4)nccc3c2c1,> 20,> 20,17.5,18.9,> 20,> 10,> 20,,,,,,,
CCc1c2c(nc3ccc(OC(=O)N4CCC(N5CCCCC5)CC4)cc13)-c1cc3c(c(=O)n1C2)COC(=O)[C@]3(O)CC [IRINOTECAN],,,,,,,,,,,,,,41.27
COc1ccc2[nH]c3c(C(=O)/C=C/c4cc(Cl)ccc4Cl)nccc3c2c1,> 20,> 20,7.95,> 20,8.13,> 10,0.68,,,,,,,
COc1cc(Br)c(/C=C/C(=O)c2nccc3c2[nH]c2ccccc23)cc1OC,9.83,> 20,2.21,9.65,7.03,> 10,3.75,,,,,,,
COc1ccc(/C=C/C(=O)c2nccc3c2[nH]c2ccccc23)cc1,> 20,> 20,17.3,> 20,> 20,> 10,19,,,,,,,
COc1ccc(/C=C/C(=O)c2nccc3c2[nH]c2ccccc23)c(OC)c1OC,> 20,> 20,> 20,11.6,> 20,> 10,> 20,,,,,,,
O=C(/C=C/c1ccccc1Cl)c1nccc2c1[nH]c1ccccc12,5.37,11.4,3.35,2.8,3.43,2.39,12.5,,,,,,,
COc1ccc2[nH]c3c(C(=O)/C=C/c4cccc(I)c4)nccc3c2c1,> 20,> 20,1.58,> 20,8.71,> 10,2.34,,,,,,,
COc1cccc(OC)c1/C=C/C(=O)c1nccc2c1[nH]c1ccccc12,> 20,> 20,10.5,> 20,> 20,> 10,> 20,,,,,,,
COc1ccc2[nH]c3c(C(=O)/C=C/c4c(C)cccc4C)nccc3c2c1,> 20,> 20,10.1,> 20,> 20,> 10,> 20,,,,,,,
COc1ccc2[nH]c3c(C(=O)/C=C/c4ccccc4Cl)nccc3c2c1,> 20,> 20,> 20,> 20,1.43,> 10,0.52,,,,,,,
COc1ccc2[nH]c3c(C(=O)/C=C/c4ccc(F)c(OC)c4)nccc3c2c1,6.48,> 20,0.77,6.33,1.41,0.99,2.47,,,,,,,
COc1ccc2[nH]c3c(C(=O)/C=C/c4cc(OC)c(OC)cc4Br)nccc3c2c1,4.51,> 20,8.05,> 20,> 20,> 10,11.3,,,,,,,
